This note sets out measurements from publication PMC4526365 (Nature structural & molecular biology, 2015).

Experiment [1] deals with T1, human intelectin-1 (hIntL-1) (Homo sapiens, UniProt Q8WWA0). The experiment in a line: competitive inhibition of hIntL-1 binding to β-Galf.
Target sequence in this assay (Q8WWA0 19-298): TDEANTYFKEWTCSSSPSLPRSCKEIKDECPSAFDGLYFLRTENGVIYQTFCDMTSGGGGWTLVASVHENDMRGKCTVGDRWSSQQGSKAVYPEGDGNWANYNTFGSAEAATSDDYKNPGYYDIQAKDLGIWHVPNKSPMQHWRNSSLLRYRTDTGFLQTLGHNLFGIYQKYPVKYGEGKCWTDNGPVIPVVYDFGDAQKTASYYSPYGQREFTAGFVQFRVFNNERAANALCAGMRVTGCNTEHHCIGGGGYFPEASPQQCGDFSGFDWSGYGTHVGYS
Experiment [2] addresses T1, human intelectin-1 (hIntL-1). The experiment in a line: ELISA-like assay on immobilized biotinylated carbohydrate. The class given is binding. Background: In an ELISA, binding on a coated surface is turned into a signal by an enzyme label.
Target sequence in this assay (Q8WWA0 whole entry): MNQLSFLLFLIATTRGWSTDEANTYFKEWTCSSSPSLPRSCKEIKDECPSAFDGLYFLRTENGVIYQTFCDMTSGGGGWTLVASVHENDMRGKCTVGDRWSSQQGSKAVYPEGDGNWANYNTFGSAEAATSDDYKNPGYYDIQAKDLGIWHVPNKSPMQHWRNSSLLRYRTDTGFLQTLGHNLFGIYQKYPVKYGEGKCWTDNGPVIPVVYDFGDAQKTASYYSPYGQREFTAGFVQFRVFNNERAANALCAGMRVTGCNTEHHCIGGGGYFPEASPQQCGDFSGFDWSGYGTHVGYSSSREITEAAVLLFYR

What is called Kd is a measure of binding affinity in units of concentration.

Take `O=P(O)(O)OCC(O)CO` (centres unmarked) [glycerol-1-phosphate]: in experiment [1], the “competitive inhibition of hIntL-1 binding to β-Galf” value is “glycerol and glycerol-1-phosphate— competitively inhibit the lectin from binding to β-Galf”.

On to “β-D-Galf (biotinylated, immobilized) [β-Galf]”, for which the affinity in experiment [2], expressed as Kd, was 85 ± 14 nM.
